Experiments:
serum prolactin = serum prolactin pharmacodynamics, Phase 1 study; assay type: in vivo, human
Experimental: The PD parameters listed in Table 13 were derived for serum prolactin based on actual times and were calculated using noncompartmental analysis (NCA) methods, as data permitted.

plasma protein = experiment: clinical; conditions: human, oral
[1] = safety and tolerability, Phase 1 study; assay type: in vivo, human
Experimental: (§1) For Cohorts 1 and 2, the study consisted of a Screening period (Day −28 to −2), an on-site period from Day −1 to Day 16 and a 10-day postdosing follow-up visit (Day 25). Subjects were admitted to the clinic on Day −1 of the assessment period and remained confined to the clinic until completion of the assessment period (or longer if the Investigator deemed it is clinically indicated for safety follow-up). Safety was assessed continuously from signing of informed consent form through follow up visit. Safety assessments including cardiac troponins, vital signs, 12-lead ECGs (electrocardiograms) were performed at screening and daily from Day −1 to Day 16, and follow-up. C-SSRS (Columbia-suicide severity rating scale) was assessed at screening, Days −1, 11, 16, and 25.
as §1, with “all cohorts,” for “Cohorts 1 and 2,”, “Safety assessments including cardiac troponins, vital signs, 12-lead ECGs (electrocardiograms) were performed at screening and daily from Day −1 to Day 16, and follow-up.” left out

[2] = tested on: UGT metabolic pathway and renal transporters; conditions: single 12 mg dose with probenecid/cimetidine vs alone
clinical = conditions: both, human, oral; for Tmax: CSF, CSF Tmax

## C[C@H]1CN2CCNCc3ccc(C(=O)NCC(F)F)c1c32 [Compound 1, (R)—N-(2,2-difluoroethyl)-7-methyl-1,2,3,4,6,7-hexahydro-[1,4]diazepino[6,7,1-hi]indole-8-carboxamide]
Serum prolactin; Day 1, Cohort 1 (3 mg doses)
  Serum prolactin AUEC, Change From Baseline, geometric mean: 13.2 ng·h/mL
  Serum prolactin AUEC, Raw, geometric mean: 95.0 ng·h/mL
  Serum prolactin Emax, Change From Baseline, geometric mean: 6.6 ng/mL
  Serum prolactin Emax, Raw, geometric mean: 17.8 ng/mL
  Serum prolactin Tmax, Raw, median: 7.84 h
Serum prolactin; Day 1, Cohort 2 (6 mg doses)
  Serum prolactin AUEC, Change From Baseline, geometric mean: 16.3 ng·h/mL
  Serum prolactin AUEC, Raw, geometric mean: 82.5 ng·h/mL
  Serum prolactin Emax, Change From Baseline, geometric mean: 4.4 ng/mL
  Serum prolactin Emax, Raw, geometric mean: 13.9 ng/mL
  Serum prolactin Tmax, Raw, median: 2.01 h
Serum prolactin; Day 1, Cohort 3 (6 mg doses)
  Serum prolactin AUEC, Change From Baseline, geometric mean: 15.0 ng·h/mL
  Serum prolactin AUEC, Raw, geometric mean: 93.6 ng·h/mL
  Serum prolactin Emax, Change From Baseline, geometric mean: 5.8 ng/mL
  Serum prolactin Emax, Raw, geometric mean: 16.4 ng/mL
  Serum prolactin Tmax, Raw, median: 1.56 h
Serum prolactin; Day 1, Cohort 4A (6 mg doses)
  Serum prolactin AUEC, Change From Baseline, geometric mean: 12.7 ng·h/mL
  Serum prolactin AUEC, Raw, geometric mean: 99.6 ng·h/mL
  Serum prolactin Emax, Change From Baseline, geometric mean: 9.1 ng/mL
  Serum prolactin Emax, Raw, geometric mean: 21.5 ng/mL
  Serum prolactin Tmax, Raw, median: 2.01 h
Serum prolactin; Day 1, Cohort 4B (6 mg doses)
  Serum prolactin AUEC, Raw, geometric mean: 80.4 ng·h/mL
  Serum prolactin Emax, Change From Baseline, geometric mean: 4.2 ng/mL
  Serum prolactin Emax, Raw, geometric mean: 15.6 ng/mL
  Serum prolactin Tmax, Raw, median: 0.48 h
Serum prolactin; Day 10, Cohort 1 (6 mg TID)
  Serum prolactin AUEC, Change From Baseline, geometric mean: 20.7 ng·h/mL
  Serum prolactin AUEC, Raw, geometric mean: 92.4 ng·h/mL
  Serum prolactin Emax, Change From Baseline, geometric mean: 6.0 ng/mL
  Serum prolactin Emax, Raw, geometric mean: 16.2 ng/mL
  Serum prolactin Tmax, Raw, median: 3.00 h
Serum prolactin; Day 10, Cohort 2 (12 mg TID)
  Serum prolactin AUEC, Change From Baseline, geometric mean: 14.4 ng·h/mL
  Serum prolactin AUEC, Raw, geometric mean: 92.0 ng·h/mL
  Serum prolactin Emax, Change From Baseline, geometric mean: 5.8 ng/mL
  Serum prolactin Emax, Raw, geometric mean: 16.0 ng/mL
  Serum prolactin Tmax, Raw, median: 7.84 h
Serum prolactin; Day 10, Cohort 3 (12 mg BID)
  Serum prolactin AUEC, Change From Baseline, geometric mean: 13.5 ng·h/mL
  Serum prolactin AUEC, Raw, geometric mean: 99.9 ng·h/mL
  Serum prolactin Emax, Change From Baseline, geometric mean: 7.2 ng/mL
  Serum prolactin Emax, Raw, geometric mean: 18.2 ng/mL
  Serum prolactin Tmax, Raw, median: 1.01 h
Serum prolactin; Day 10, Cohort 4A (15 mg BID)
  Serum prolactin AUEC, Raw, geometric mean: 84.3 ng·h/mL
  Serum prolactin Emax, Change From Baseline, geometric mean: 4.7 ng/mL
  Serum prolactin Emax, Raw, geometric mean: 14.7 ng/mL
  Serum prolactin Tmax, Raw, median: 2.00 h
Serum prolactin; Day 10, Cohort 4B (18 mg BID)
  Serum prolactin AUEC, Change From Baseline, geometric mean: 17.8 ng·h/mL
  Serum prolactin AUEC, Raw, geometric mean: 99.4 ng·h/mL
  Serum prolactin Emax, Change From Baseline, geometric mean: 8.1 ng/mL
  Serum prolactin Emax, Raw, geometric mean: 16.7 ng/mL
  Serum prolactin Tmax, Raw, median: 1.10 h
Plasma protein; 6 mg, Day 11, Cohort 1 (6 mg TID)
  fraction unbound at 11 day: 0.969
Plasma protein; 12 mg, Day 11, Cohort 2 (12 mg TID)
  fraction unbound at 11 day: 0.968
Plasma protein; 12 mg, Day 11, Cohort 3 (12 mg BID)
  fraction unbound at 11 day: 0.93
Plasma protein; 15 mg, Day 11, Cohort 4A (15 mg BID)
  fraction unbound at 11 day: 0.913
Plasma protein; 18 mg, Day 11, Cohort 4B (18 mg BID)
  fraction unbound at 11 day: 0.926
[1]; Cohorts 1 and 2
  safety and tolerability: Favorable safety and tolerability results
[1]; all cohorts
  safety and tolerability: Favorable safety and tolerability results
[2]
  increase in Compound 1 exposure: ~80%
CYP3A4, CYP2D6, P-gp; alone or in combination with other probe substrates
  safety and tolerability: safe and generally well-tolerated
CYP3A4, CYP2D6, P-gp; lack of effect of quinidine on exposure
  substrate for CYP3A4, CYP2D6 or P-gp: not a substrate for CYP3A4, CYP2D6, or P-gp
clinical; CSF / free (unbound) plasma, CSF/P Cmax ratio, across all cohorts
  Kp: 0.663 to 0.764
clinical; CSF / free (unbound) plasma, CSF/P Ctrough ratio, across all cohorts
  Kp: 1.26 to 1.92
clinical; CSF / free drug in plasma, 6 mg, CSF/P Ctrough, mean (SD), CSF to free drug plasma ratio, Day 11, Cohort 1 (6 mg TID)
  Kp: 1.26
clinical; CSF / free drug in plasma, 12 mg, CSF/P Ctrough, mean (SD), CSF to free drug plasma ratio, Day 11, Cohort 2 (12 mg TID)
  Kp: 1.31
clinical; CSF / free drug in plasma, 12 mg, CSF/P Ctrough, mean (SD), CSF to free drug plasma ratio, Day 11, Cohort 3 (12 mg BID)
  Kp: 1.92
clinical; CSF / free drug in plasma, 15 mg, CSF/P Ctrough, mean (SD), CSF to free drug plasma ratio, Day 11, Cohort 4A (15 mg BID)
  Kp: 1.48
clinical; CSF / free drug in plasma, 18 mg, CSF/P Ctrough, mean (SD), CSF to free drug plasma ratio, Day 11, Cohort 4B (18 mg BID)
  Kp: 1.69
clinical; 6 mg, median (minimum, maximum), Day 11, Cohort 1 (6 mg TID)
  Tmax: 2.52 h
clinical; 12 mg, median (minimum, maximum), Day 11, Cohort 2 (12 mg TID)
  Tmax: 3.04 h
clinical; 12 mg, median (minimum, maximum), Day 11, Cohort 3 (12 mg BID)
  Tmax: 2.53 h
clinical; 15 mg, median (minimum, maximum), Day 11, Cohort 4A (15 mg BID)
  Tmax: 3.02 h
clinical; 18 mg, median (minimum, maximum), Day 11, Cohort 4B (18 mg BID)
  Tmax: 3.06 h
clinical; Day 11, across cohorts
  Tmax: 2.52 to 3.06 h
